pIC50: −log10 of the molar value.
Legend:
Sk-Mel-2 cells = test: SK-Mel-2 cell proliferation assay (resazurin); format: cell-based; details: Homo sapiens, N-Ras mutation B-Raf wild type, read-out: Cell Proliferation Inhibition IC50, nM SK-Mel-2
HT-29 cells = test: HT-29 cell proliferation assay (resazurin); format: cell-based; details: Homo sapiens, V600E mutation, read-out: Cell Proliferation Inhibition IC50, nM HT-29
Protocol: HT-29 cells (catalog #HTB-38) are obtained from the American Type Culture Collection (ATCC, Manassas, Va.). Briefly, cells are grown in McCoy's 5A supplemented with 10% characterized fetal bovine serum (Invitrogen, Carlsbad, Calif.), and 1% Penicillin/Streptomycin/L-Glutamine at 37 degrees Celsius, 5% CO2, and 95% humidity. Cells are allowed to expand until reaching 75-90% confluency at which point they are subcultured or harvested for assay use. A serial dilution of test compound is dispensed into a 384-well black clear bottom plate in triplicate. One thousand two-hundred fifty cells are added per well in 50 μL complete growth medium in the 384-well plate. Plates are incubated for 67 hours at 37 degrees Celsius, 5% CO2, and 95% humidity. At the end of the incubation period, 10 μL of a 440 μM solution of resazurin (Sigma, St. Louis, Mo.) in PBS is added to each well of the plate and plates are incubated for an additional 5 hours at 37 degrees Celsius, 5% CO2, and 95% humidity. Plates are read on a Synergy2 reader (Biotek, Winooski, Vt.) using an excitation of 540 nm and an emission of 600 nm. Data is analyzed using Prism software (Graphpad, San Diego, Calif.) to calculate IC50 values.
The A375, HT-29, and Colo-205 cells (ATCC) harbor a V600E mutation.

HCT-116 cells = test: HCT-116 cell proliferation assay (resazurin); format: cell-based; details: Homo sapiens, K-Ras mutation B-Raf wild type, read-out: Cell Proliferation Inhibition IC50, nM HCT-116
human wild type C-Raf = target: T1, human wild type C-Raf (Homo sapiens, UniProt P04049); test: Enzymatic assay of C-Raf kinase activity (Raf/MEK1 ATPase, coupled PK/LDH, A340); format: biochemical; details: read-out: Enzyme IC50, nM C-Raf
T1 construct: made in house
Protocol: Test compounds are evaluated for their inhibitory activities against one or more of human wild type B-Raf, human wild type C-Raf, human B-Raf V600E, human B-Raf V600E+T529I or human B-Raf V600E+G468A. T529I is a threonine to isoleucine B-Raf gatekeeper mutation and G468A is a B-Raf secondary mutation at G1403C in exon 11. The enzymatic assays of B-Raf, C-Raf and B-Raf mutations evaluate a property of Raf and MEK1 complex, which in the presence of ATP, catalyzes an enhanced ATP hydrolysis (Rominger, et al, Arch. Biochem. Biophys. 2007, 464: 130-137; US Patent Publication No. 2006/0211073). The ADP formed is monitored by the well-known coupled PK/LDH (pyruvate kinase/lactate dehydrogenase) system in the form of NADH oxidation, which can be monitored and detected spectrophotometrically by absorbance at 340 nm (A340; for principal of the method see Schindler et al, Science, 2000, 289: 1938-1942). Raf activated MEK1 ATPase activity is a property shared by all forms of Raf proteins.
Test compounds are evaluated for their inhibitory activities against one or more of wild type B-Raf, wild type C-Raf, B-Raf V600E, B-Raf V600E+T529I and B-Raf V600E+G468A. T529I is a B-Raf gatekeeper mutation and G468A is a B-Raf secondary mutation. The enzymatic assays of B-Raf, C-Raf and B-Raf mutations evaluate a property of Raf and MEK1 complex, which in the presence of ATP, catalyzes an enhanced ATP hydrolysis (Rominger, et al, Arch. Biochem. Biophys. 2007, 464: 130-137). The ADP formed is monitored by the well-known coupled PK/LDH (pyruvate kinase/lactate dehydrogenase) system in the form of NADH oxidation, which can be monitored and detected by absorbance at 340 nm (A340; for principal of the method see Schindler et al, Science, 2000, 289: 1938-1942). Raf activated MEK1 ATPase activity is a property shared by all forms of Raf proteins. In the B-Raf wild type enzymatic assay, the reaction mixture contains 1.2 nM B-Raf, 30 nM MEK1, 1000 uM ATP, 3.5 units (per 100 ul) of PK, 5 units (per 100 ul) of LDH, 1 mM phosphoenol pyruvate (PEP), and 280 uM of NADH. In the C-Raf assay, the reaction mixture contains 0.6 nM C-Raf, 26 nM MEK1, 2000 uM ATP, and the same amount of PK, LDH, PEP and NADH as above. In the B-Raf V600E assay, the reaction mixture contains […] B-Raf V600E, 26 nM MEK1, 200 uM ATP and the same amount of PK, LDH, PEP and NADH as above. In the B-RafV600E+T529I assay, the reaction mixture contains 6.2 nM B-Raf V600E+T529I, 30 nM MEK1, 200 uM ATP and the same amount of PK, LDH, PEP and NADH as above. In the B-Raf V600E+G468A assay, the reaction mixture contains 3.5 nM B-Raf, 30 nM MEK1, 200 uM ATP and the same amount of PK, LDH, PEP and NADH as above. All assays are started by mixing the above mixture with test compound and monitoring at A340 continuously for approximately 5 hr. […] In the aforementioned assays, the enzyme constructs can be screened prior to or after cleavage of the N-terminal purification tag.

human wild type c-KIT = target: T2, human wild type c-KIT (Homo sapiens, UniProt P10721); test: Enzymatic assay of c-Kit kinase activity (poly E4Y phosphorylation, coupled PK/LDH); format: biochemical
T2 construct: GST (N); made in house
Text: c-Kit is an important oncogene, and its overexpression and genetic mutations often occur in melanoma and gastrointestinal stromal tumor (GIST) patients. In the c-Kit enzymatic assay, the phosphorylation of poly E4Y by ATP catalyzed by human c-Kit is monitored spectrophotometrically. The ADP produced from the kinase reaction is coupled to pyruvate kinase/lactate dehydrogenase (PK/LDH) reactions where NAD is formed from pyruvate and NADH. NADH can be detected by absorbance at 340 nm, as described above for enzymatic assays of kinase activities of B-Raf, C-Raf and B-Raf mutations.
The assay reaction mixture includes 6 nM human wild type c-KIT, 1 mg/mL Poly (Glu,Tyr) (Sigma), 1 mM Phosphoenol-pyruvate, 280 μM NADH, 5 U/3.5 U (per 100 ul) Pyruvate Kinase/Lactate Dehydrogenase, 85 mM Tris, pH 7.5, 17 mM MgCl2, 0.0042% Triton® X-100, 0.005% BSA, 1% DMSO. Test compound is incubated with the reaction mixture for 0.5 hour before adding 200 μM ATP to start the reaction at 30° C.

T2 sequence (P10721 26-976): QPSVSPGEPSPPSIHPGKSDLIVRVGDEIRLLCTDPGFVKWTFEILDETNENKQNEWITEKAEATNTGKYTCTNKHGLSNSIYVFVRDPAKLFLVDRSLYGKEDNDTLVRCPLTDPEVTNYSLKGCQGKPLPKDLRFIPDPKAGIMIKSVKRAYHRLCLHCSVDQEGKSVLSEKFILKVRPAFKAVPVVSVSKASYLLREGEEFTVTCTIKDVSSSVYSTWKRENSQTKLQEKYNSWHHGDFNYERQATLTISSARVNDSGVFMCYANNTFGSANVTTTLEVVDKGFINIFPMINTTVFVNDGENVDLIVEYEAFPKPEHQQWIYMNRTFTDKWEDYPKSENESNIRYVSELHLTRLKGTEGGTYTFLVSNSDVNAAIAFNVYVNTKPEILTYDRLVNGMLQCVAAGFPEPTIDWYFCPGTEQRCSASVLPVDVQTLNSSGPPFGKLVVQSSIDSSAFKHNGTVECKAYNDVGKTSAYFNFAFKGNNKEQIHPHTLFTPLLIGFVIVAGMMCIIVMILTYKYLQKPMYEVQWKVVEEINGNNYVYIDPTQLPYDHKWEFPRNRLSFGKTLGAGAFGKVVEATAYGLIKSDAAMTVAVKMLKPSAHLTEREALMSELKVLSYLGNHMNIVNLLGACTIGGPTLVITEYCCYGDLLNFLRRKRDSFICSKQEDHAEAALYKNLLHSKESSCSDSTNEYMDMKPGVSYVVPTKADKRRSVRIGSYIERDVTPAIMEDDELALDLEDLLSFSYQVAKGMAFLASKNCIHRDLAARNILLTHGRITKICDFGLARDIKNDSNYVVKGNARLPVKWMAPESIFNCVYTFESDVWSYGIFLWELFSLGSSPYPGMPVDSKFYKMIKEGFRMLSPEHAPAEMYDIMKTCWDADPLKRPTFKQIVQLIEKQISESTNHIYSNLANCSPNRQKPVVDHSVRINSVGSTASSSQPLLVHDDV
T1 sequence (P04049 whole entry): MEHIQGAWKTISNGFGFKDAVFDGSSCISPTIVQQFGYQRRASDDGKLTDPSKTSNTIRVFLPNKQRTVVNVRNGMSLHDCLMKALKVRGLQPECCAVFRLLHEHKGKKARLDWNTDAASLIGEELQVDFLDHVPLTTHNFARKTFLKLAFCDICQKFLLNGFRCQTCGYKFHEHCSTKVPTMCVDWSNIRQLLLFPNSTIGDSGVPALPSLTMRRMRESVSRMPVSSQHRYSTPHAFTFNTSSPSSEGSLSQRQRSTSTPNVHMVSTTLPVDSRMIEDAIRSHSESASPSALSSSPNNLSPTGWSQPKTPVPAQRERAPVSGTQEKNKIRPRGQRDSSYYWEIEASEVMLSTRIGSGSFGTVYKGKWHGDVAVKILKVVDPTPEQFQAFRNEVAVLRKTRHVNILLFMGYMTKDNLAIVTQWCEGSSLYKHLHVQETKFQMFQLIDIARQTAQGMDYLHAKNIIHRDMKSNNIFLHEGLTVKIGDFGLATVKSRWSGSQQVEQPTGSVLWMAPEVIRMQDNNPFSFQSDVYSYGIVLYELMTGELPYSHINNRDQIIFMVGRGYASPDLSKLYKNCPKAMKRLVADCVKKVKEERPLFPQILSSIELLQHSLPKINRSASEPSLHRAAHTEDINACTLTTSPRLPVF

Compound: CNc1ncc2cc(-c3cc(NC(=O)NCC4CC4(C)C)c(F)cc3C)cnc2n1 (centres unmarked) [Example 9]
- IC50 (Sk-Mel-2 cells): 100 to 1000 nM
- IC50 (HT-29 cells): 100 to 1000 nM
- IC50 (HCT-116 cells): 1000 to 10000 nM
- IC50 (human wild type C-Raf): < 150 nM
- pIC50 (human wild type c-KIT): > 6.82

Compound: Cc1cc(F)c(NC(=O)NCC(O)C(C)(C)C)cc1-c1cc2cnc(N)nc2nc1C (centres unmarked) [Example 10]
- IC50 (Sk-Mel-2 cells): 1000 to 10000 nM
- IC50 (HT-29 cells): 100 to 1000 nM
- IC50 (HCT-116 cells): 1000 to 10000 nM
- IC50 (human wild type C-Raf): < 150 nM
- pIC50 (human wild type c-KIT): > 6.82

Compound: CNc1ncc2cc(-c3cc(NC(=O)NCC(O)C(C)(C)C)c(F)cc3F)c(C)nc2n1 (centres unmarked) [Example 11, 1-[2,4-Difluoro-5-(7-methyl-2-methylamino-pyrido[2,3-d]pyrimidin-6-yl)phenyl]-3-(2-hydroxy-3,3-dimethyl-butyl)urea]
- IC50 (Sk-Mel-2 cells): 100 to 1000 nM
- IC50 (HT-29 cells): 100 to 1000 nM
- IC50 (HCT-116 cells): 1000 to 10000 nM
- IC50 (human wild type C-Raf): < 150 nM
- pIC50 (human wild type c-KIT): > 6.82

Compound: CNc1ncc2cc(-c3cc(NC(=O)NCCC(C)(C)C#N)c(F)cc3F)c(C)nc2n1 [Example 12, 1-(3-Cyano-3-methylbutyl)-3-(2,4-difluoro-5-(7-methyl-2-(methylamino)pyrido[2,3-d]pyrimidin-6-yl)phenyl)urea]
- IC50 (Sk-Mel-2 cells): 100 to 1000 nM
- IC50 (HT-29 cells): 100 to 1000 nM
- IC50 (HCT-116 cells): 1000 to 10000 nM
- IC50 (human wild type C-Raf): < 150 nM
- pIC50 (human wild type c-KIT): > 6.82

Compound: CNc1ncc2cc(-c3ccc(F)c(NC(=O)NCCC(C)(C)C#N)c3)c(C)nc2n1 [Example 13, 1-(3-Cyano-3-methylbutyl)-3-(2-fluoro-5-(7-methyl-2-(methylamino)pyrido[2,3-d]pyrimidin-6-yl)phenyl)urea]
- IC50 (Sk-Mel-2 cells): 100 to 1000 nM
- IC50 (HT-29 cells): 100 to 1000 nM
- IC50 (HCT-116 cells): 1000 to 10000 nM
- IC50 (human wild type C-Raf): < 150 nM
- pIC50 (human wild type c-KIT): > 6.82

Compound: CNc1ncc2cc(-c3cc(NC(=O)NCCC(C)(C)OC)c(F)cc3C)c(C)nc2n1 [Example 14, 1-(2-Fluoro-4-methyl-5-(7-methyl-2-(methylamino)pyrido[2,3-d]pyrimidin-6-yl)phenyl)-3-(3-methoxy-3-methylbutyl)urea]
- IC50 (Sk-Mel-2 cells): 1000 to 10000 nM
- IC50 (HT-29 cells): < 100 nM
- IC50 (HCT-116 cells): 100 to 1000 nM
- IC50 (human wild type C-Raf): < 150 nM
- pIC50 (human wild type c-KIT): > 6.82

Compound: CNc1ncc2cc(-c3cc(NC(=O)NC[C@H](O)C(C)(C)C)c(F)cc3C)cnc2n1 [Example 18, 1-[2-Fluoro-4-methyl-5-(2-methylaminopyrido[2,3-d]pyrimidin-6-yl)phenyl]-3-[(2R)-2-hydroxy-3,3-dimethyl-butyl]urea]
- IC50 (Sk-Mel-2 cells): 100 to 1000 nM
- IC50 (HT-29 cells): < 100 nM
- IC50 (HCT-116 cells): 100 to 1000 nM
- IC50 (human wild type C-Raf): < 150 nM

Compound: CNc1ncc2cc(-c3cc(NC(=O)NC[C@@H](O)C(C)(C)C)c(F)cc3C)cnc2n1 [Example 19, 1-[2-fluoro-4-methyl-5-(2-methylaminopyrido[2,3-d]pyrimidin-6-yl)phenyl]-3-[(2S)-2-hydroxy-3,3-dimethyl-butyl]urea]
- IC50 (Sk-Mel-2 cells): 100 to 1000 nM
- IC50 (HT-29 cells): 100 to 1000 nM
- IC50 (HCT-116 cells): 1000 to 10000 nM
- IC50 (human wild type C-Raf): < 150 nM

— US9334267B2, “RAF inhibitor compounds” (Deciphera Pharmaceuticals, LLC, priority 2012, dated 2016)
